Where a name gives a salt, the structure may show the parent alone.
Assay: Solubility of ecabet sodium in aqueous solution
Type: physicochemical
Conditions: pH less than pH 7

In the case of `CC(C)c1cc2c(cc1S(=O)(=O)O)[C@@]1(C)CCC[C@@](C)(C(=O)O)[C@@H]1CC2` [ecabet sodium, (+)-(1R,4aS,10aR)-1,2,3,4,4a,9,10,10a-octahydro-1,4a-dimethyl-7-(1-methylethyl)-6-sulfo-1-phenanthrencarboxylic acid 6-sodium salt pentahydrate], the “solubility in an aqueous solution” value is reported as “low”.

From patent US20040259905A1, “Aqueous ecabet sodium solution preparation” (priority 2001, published 2004)
